Reference: patent US8796303B2, “Imidazo[2,1-G][1,7]naphthyridines for treating respiratory syncytial virus infections” (Biota Scientific Management Pty Ltd., priority 2010, dated 2014)
Converted amounts (≈) assume the structure as drawn. Like-named read-outs stand apart in the source and are kept apart here.

What was measured:
RSV A2 = assay: RSV antiviral CPE assay in HEp2 cells (MTT); assay type: cell-based, respiratory syncytial virus; conditions: for EC50: human respiratory syncytial virus, HEp-2, 120 h, HEp2 cells, RSV A2 moi ~0.01, 5 days, CPE by MTT; for activity compared with the 3-substituted isoxazol-4-yls of the present invention: comparative RSV activity
Protocol: Compounds of the invention were tested for their antiviral activity against respiratory syncytial virus. Cytopathic effect (CPE) assays were performed essentially as described in the literature (see for example Watanabe et al, 1994, J. Virological Methods, 48:257). Serial dilutions of the test compounds were made in 96 well plates. HEp2 cells (1.0×10^4 cells/well) were infected with RSV at a low multiplicity of infection (e.g. RSV A2 at an moi of ˜0.01) and added to plates to assess antiviral activity. Uninfected HEp2 cells were used to assess compound cytotoxicity. Assays were incubated for 5 days at 37° C. in a 5% CO2 atmosphere. The extent of CPE was determined via metabolism of the vital dye 3-(4,5-dimethylthiaxol-2-yl)-2,5-diphenyltetrazolium bromide (MTT). MTT (1 mg/ml) was added to each well and plates incubated for 2 hours incubation at 37° C. Wells were aspirated, iso-propanol (200 μL) was added and absorbance values read at 540/650 nm. Compound concentrations that inhibited CPE by 50% (EC50) and developed cytotoxicity (CC50) were calculated using non-linear regression analysis. The CC50 values of the compounds tested were determined to be >5000 nM.

[1] = Aqueous solubility by laser nephelometry; assay type: physicochemical; conditions: for solubility at 30 min: kinetic from dmso stock, 1% DMSO, 30 minute incubation at 25° C., range 1.6-100; for solubility compared with the 3-substituted isoxazol-4-yls of the present invention: comparative solubility
Protocol: Test compounds prepared in DMSO were screened in duplicate over a range of concentrations (1.6-100 ug/mL) in different aqueous media (for example pH2 or pH6.5 buffers which are relevant to the stomach and upper regions of the small intestine). Test compounds were serially diluted in 100% DMSO ranging from 10-0.16 mg/mL. These diluted compounds were then added to test plates (UV Star Griener 96 well plates) containing assay buffers with a further 1:100 dilution keeping a constant 1% DMSO concentration across the plate.

[2] = pH 2, simulated gastric fluid, pH2 buffer, read-out: Solubility at pH2
[3] = pH 6.5, aqueous buffer, pH6.5 buffer, read-out: Solubility at pH6.5

EC50 (RSV A2) | solubility at 30 min [1, 2] | solubility at 30 min [1, 3] | solubility compared with the 3-substituted isoxazol-4-yls of the present invention [1] | Structure (SMILES) | activity compared with the 3-substituted isoxazol-4-yls of the present invention (RSV A2) | drop in activity against the 3-substituted isoxazol-4-yl compound of example 4 (RSV A2; RSV A2 antiviral activity, compared with example 4)
5.2 nM | 50 to 100 µg/mL (≈ 122 to 244 µM) | > 100 µg/mL | – | Cc1nocc1C(=O)N1CCN2C(=O)c3nccnc3C[C@]12c1ccc(Cl)cc1 (single isomer, unassigned) [Compound 1A] | – | –
12.4 nM | > 100 µg/mL | > 100 µg/mL | – | Cc1nocc1C(=O)N1CCN2C(=O)c3nccnc3C[C@]12c1ccc(F)cc1 (single isomer, unassigned) [Compound 5A] | – | –
70 nM | > 100 µg/mL | > 100 µg/mL | – | Cc1nocc1C(=O)N1CCN2C(=O)c3ncccc3CC12C1CCCCC1 (stereo not drawn) [Compound 11, 10a-cyclohexyl-1-[(3-methyl-1,2-oxazol-4-yl)carbonyl]-2,3,10,10a-tetrahydroimidazo[2,1-g][1,7]naphthyridin-5(1H)-one] | – | –
7.7 nM | 50 to 100 µg/mL (≈ 123 to 246 µM) | > 100 µg/mL | – | Cc1cc([C@]23Cc4cccnc4C(=O)N2CCN3C(=O)c2conc2C)ccc1F (single isomer, unassigned) [Compound 6A] | – | –
13.6 nM | > 100 µg/mL | 50 to 100 µg/mL (≈ 120 to 240 µM) | – | Cc1nocc1C(=O)N1CCN2C(=O)c3ncccc3CC12c1ccc2c(c1)CCO2 (stereo not drawn) [Compound 14, 10a-(2,3-dihydro-1-benzofuran-5-yl)-1-[(3-methyl-1,2-oxazol-4-yl)carbonyl]-2,3,10,10a-tetrahydroimidazo[2,1-g][1,7]naphthyridin-5(1H)-one] | – | –
267 nM | 3.1 to 6.3 µg/mL (≈ 7.53 to 15.3 µM) | 3.1 to 6.3 µg/mL (≈ 7.53 to 15.3 µM) | less soluble | O=C(c1ccno1)N1CCN2C(=O)c3cccc(F)c3CC12c1ccc(Cl)cc1 (stereo not drawn) [Compound 1-088, reference compound] | less active | –
30.5 nM | > 100 µg/mL | > 100 µg/mL | – | Cc1nocc1C(=O)N1CCN2C(=O)c3nccnc3CC12c1ccc(F)c(F)c1 (stereo not drawn) [Compound 8, 5a-(3,4-difluorophenyl)-6-[(3-methyl-1,2-oxazol-4-yl)carbonyl]-5a,6,7,8-tetrahydroimidazo[1′,2′:1,6]pyrido[3,4-b]pyrazin-10(5H)-one] | – | –
7 nM | 50 to 100 µg/mL (≈ 108 to 216 µM) | 50 to 100 µg/mL (≈ 108 to 216 µM) | – | O=C(c1conc1C(F)(F)F)N1CCN2C(=O)c3ncccc3CC12c1ccc(Cl)cc1 (stereo not drawn) [Compound 13, 10a-(4-chlorophenyl)-1-{[3-(trifluoromethyl)-1,2-oxazol-4-yl]carbonyl}-2,3,10,10a-tetrahydroimidazo[2,1-g][1,7]naphthyridin-5(1H)-one] | – | –
6.4 nM | 25 to 50 µg/mL (≈ 61.5 to 123 µM) | 50 to 100 µg/mL (≈ 123 to 246 µM) | – | Cc1cc(C23Cc4cccnc4C(=O)N2CCN3C(=O)c2conc2C)ccc1F (stereo not drawn) [Compound 6, 10a-(4-fluoro-3-methylphenyl)-1-[(3-methyl-1,2-oxazol-4-yl)carbonyl]-2,3,10,10a-tetrahydroimidazo[2,1-g][1,7]naphthyridin-5(1H)-one] | – | –
6.3 nM | 50 to 100 µg/mL (≈ 122 to 244 µM) | 50 to 100 µg/mL (≈ 122 to 244 µM) | – | Cc1nocc1C(=O)N1CCN2C(=O)c3nccnc3CC12c1ccc(Cl)cc1 (stereo not drawn) [Compound 1, 5a-(4-chlorophenyl)-6-[(3-methyl-1,2-oxazol-4-yl)carbonyl]-5a,6,7,8-tetrahydroimidazo[1′,2′:1,6]pyrido[3,4-b]pyrazin-10(5H)-one] | – | –
36.9 nM | > 100 µg/mL | > 100 µg/mL | – | Cc1nocc1C(=O)N1CCN2C(=O)c3ncccc3CC12c1ccccc1Cl (stereo not drawn) [Compound 10, 10a-(2-chlorophenyl)-1-[(3-methyl-1,2-oxazol-4-yl)carbonyl]-2,3,10,10a-tetrahydroimidazo[2,1-g][1,7]naphthyridin-5(1H)-one] | – | –
1710 nM | 3.1 to 6.3 µg/mL (≈ 7.87 to 16 µM) | 3.1 to 6.3 µg/mL (≈ 7.87 to 16 µM) | less soluble | O=C(c1ccno1)N1CCN2C(=O)c3ccccc3CC12c1ccc(Cl)cc1 (stereo not drawn) [Compound 1-025, reference compound] | less active | –
64.4 nM | 50 to 100 µg/mL (≈ 120 to 240 µM) | > 100 µg/mL | – | Cc1nocc1C(=O)N1CCN2C(=O)c3ncccc3CC12C1CCC(F)(F)CC1 (stereo not drawn) [Compound 12, 10a-(4,4-difluorocyclohexyl)-1-[(3-methyl-1,2-oxazol-4-yl)carbonyl]-2,3,10,10a-tetrahydroimidazo[2,1-g][1,7]naphthyridin-5(1H)-one] | – | –
560 nM | – | – | less soluble | O=C(c1ccno1)N1CCN2C(=O)c3cccnc3CC12c1ccc(Cl)cc1 (stereo not drawn) [Compound 1-100, reference compound] | less active | –
35 nM | 25 to 50 µg/mL (≈ 60.9 to 122 µM) | 50 to 100 µg/mL (≈ 122 to 244 µM) | – | Cc1nocc1C(=O)N1CCN2C(=O)c3ncccc3CC12c1ccc(F)c(F)c1 (stereo not drawn) [Compound 7, 10a-(3,4-difluorophenyl)-1-[(3-methyl-1,2-oxazol-4-yl)carbonyl]-2,3,10,10a-tetrahydroimidazo[2,1-g][1,7]naphthyridin-5(1H)-one] | – | –
27.5 nM | > 100 µg/mL | > 100 µg/mL | – | Cc1nocc1C(=O)N1CCN2C(=O)c3ncccc3CC12c1ccc(F)cc1 (stereo not drawn) [Compound 4, 10a-(4-fluorophenyl)-1-[(3-methyl-1,2-oxazol-4-yl)carbonyl]-2,3,10,10a-tetrahydroimidazo[2,1-g][1,7]naphthyridin-5(1H)-one] | – | –
27.6 nM | > 100 µg/mL | > 100 µg/mL | – | Cc1nocc1C(=O)N1CCN2C(=O)c3nccnc3CC12c1ccc(F)cc1 (stereo not drawn) [Compound 5, 5a-(4-fluorophenyl)-6-[(3-methyl-1,2-oxazol-4-yl)carbonyl]-5a,6,7,8-tetrahydroimidazo[1′,2′:1,6]pyrido[3,4-b]pyrazin-10(5H)-one] | – | –
83.1 nM | > 100 µg/mL | > 100 µg/mL | – | COc1ccc(C23Cc4cccnc4C(=O)N2CCN3C(=O)c2conc2C)cc1 (stereo not drawn) [Compound 3, 10a-(4-methoxyphenyl)-1-[(3-methyl-1,2-oxazol-4-yl)carbonyl]-2,3,10,10a-tetrahydroimidazo[2,1-g][1,7]naphthyridin-5(1H)-one] | – | –
9 nM | 50 to 100 µg/mL (≈ 123 to 245 µM) | > 100 µg/mL | – | Cc1cc(C23Cc4nccnc4C(=O)N2CCN3C(=O)c2conc2C)ccc1F (stereo not drawn) [Compound 9, 5a-(4-fluoro-3-methylphenyl)-6-[(3-methyl-1,2-oxazol-4-yl)carbonyl]-5a,6,7,8-tetrahydroimidazo[1′,2′:1,6]pyrido[3,4-b]pyrazin-10(5H)-one] | – | –
5000 nM | – | – | – | Cc1nocc1C(=O)N1CCN2C(=O)c3ncccc3C[C@@]12c1ccc(Cl)cc1 (single isomer, unassigned) [Compound 2B] | – | –
276 nM | – | – | – | Cc1oncc1C(=O)N1CCN2C(=O)c3ncccc3CC12c1ccc(F)cc1 (stereo not drawn) [Compound A, reference compound] | – | ten-fold drop in activity
16.3 nM | > 100 µg/mL | > 100 µg/mL | – | Cc1nocc1C(=O)N1CCN2C(=O)c3ncccc3C[C@]12c1ccc(F)cc1 (single isomer, unassigned) [Compound 4A] | – | –
175 nM | < 1.6 µg/mL | < 1.6 µg/mL | less soluble | O=C(c1ccon1)N1CCN2C(=O)c3cccc(F)c3CC12c1ccc(Cl)cc1 (stereo not drawn) [Compound 1-086, reference compound] | less active | –
